Values quoted from earlier work as cited in patent US12329849B2, “Method for dyeing keratinous material, comprising the use of an organosilicon compound, a dyeing compound, a sealing reagent, and a polymer-containing post-treatment agent” (Henkel AG & Co. KGaA, priority 2021, dated 2025).

Row | solubility in water (25° C.) | Structure (SMILES) | also measured
1 | more than 7 g/l | O=S(=O)([O-])c1ccc(N=Nc2c(O)ccc3ccccc23)cc1.[Na+] [Acid Orange 7, sodium salt of 4-[(2-hydroxy-1-naphthyl)azo]benzenesulfonate] | 
2 |  | O=C([O-])C1=NN(c2ccc(S(=O)(=O)[O-])cc2)C(=O)C1N=Nc1ccc(S(=O)(=O)[O-])cc1.[Na+].[Na+].[Na+] (centres unmarked) [Acid Yellow 23, trisodium salt of 4,5-dihydro-5-oxo-1-(4-sulfophenyl)-4-((4-sulfophenyl)azo)-1H-pyrazole-3-carboxylic acid] | solubility in water (in words) (at 25° C.): readily soluble
3 |  | CCN(Cc1cccc(S(=O)(=O)[O-])c1)c1ccc(C(=C2C=CC(=[N+](CC)Cc3cccc(S(=O)(=O)[O-])c3)C=C2)c2ccccc2S(=O)(=O)[O-])cc1.[Na+].[Na+] [Acid Blue 9] | water solubility (25° C.): more than 20 wt %
4 | 2500 µg/mL | Nc1cc(S(=O)(=O)[O-])cc2cc(S(=O)(=O)[O-])c(N=Nc3ccccc3)c(O)c12.[Na+].[Na+] [Acid Red 33, disodium salt of 5-amino-4-hydroxy-3-(phenylazo)-naphthalene-2,7-disulfonate] | 

Row | Structure (SMILES) | solubility in water (25° C.) | also measured
5 | O=C([O-])c1c(Cl)c(Cl)c(Cl)c(Cl)c1-c1c2c(Br)cc(=O)c(Br)c-2oc2c(Br)c(O)cc(Br)c12.O=C([O-])c1c(Cl)c(Cl)c(Cl)c(Cl)c1-c1c2c(Br)cc(=O)c(Br)c-2oc2c(Br)c(O)cc(Br)c12.[Na+].[Na+] [Acid Red 92, disodium salt of 3,4,5,6-tetrachloro-2-(1,4,5,8-tetrabromo-6-hydroxy-3-oxoxanthen-9-yl)benzoic acid] | greater than 10 g/l | 
